Measurements taken from ChEMBL document CHEMBL1201862, “PubChem BioAssay data set” (2004).
Calls of active or inactive are those of the source.

Tests used:
[1] = target: T1, Sentrin-specific protease 6 (Homo sapiens, UniProt Q9GZR1); type: functional;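 further: Luminescence-based dose-response confirmatory assay of SENP6 inhibition, following up an ultra-high-throughput screen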
T1 sequence (Q9GZR1 whole entry): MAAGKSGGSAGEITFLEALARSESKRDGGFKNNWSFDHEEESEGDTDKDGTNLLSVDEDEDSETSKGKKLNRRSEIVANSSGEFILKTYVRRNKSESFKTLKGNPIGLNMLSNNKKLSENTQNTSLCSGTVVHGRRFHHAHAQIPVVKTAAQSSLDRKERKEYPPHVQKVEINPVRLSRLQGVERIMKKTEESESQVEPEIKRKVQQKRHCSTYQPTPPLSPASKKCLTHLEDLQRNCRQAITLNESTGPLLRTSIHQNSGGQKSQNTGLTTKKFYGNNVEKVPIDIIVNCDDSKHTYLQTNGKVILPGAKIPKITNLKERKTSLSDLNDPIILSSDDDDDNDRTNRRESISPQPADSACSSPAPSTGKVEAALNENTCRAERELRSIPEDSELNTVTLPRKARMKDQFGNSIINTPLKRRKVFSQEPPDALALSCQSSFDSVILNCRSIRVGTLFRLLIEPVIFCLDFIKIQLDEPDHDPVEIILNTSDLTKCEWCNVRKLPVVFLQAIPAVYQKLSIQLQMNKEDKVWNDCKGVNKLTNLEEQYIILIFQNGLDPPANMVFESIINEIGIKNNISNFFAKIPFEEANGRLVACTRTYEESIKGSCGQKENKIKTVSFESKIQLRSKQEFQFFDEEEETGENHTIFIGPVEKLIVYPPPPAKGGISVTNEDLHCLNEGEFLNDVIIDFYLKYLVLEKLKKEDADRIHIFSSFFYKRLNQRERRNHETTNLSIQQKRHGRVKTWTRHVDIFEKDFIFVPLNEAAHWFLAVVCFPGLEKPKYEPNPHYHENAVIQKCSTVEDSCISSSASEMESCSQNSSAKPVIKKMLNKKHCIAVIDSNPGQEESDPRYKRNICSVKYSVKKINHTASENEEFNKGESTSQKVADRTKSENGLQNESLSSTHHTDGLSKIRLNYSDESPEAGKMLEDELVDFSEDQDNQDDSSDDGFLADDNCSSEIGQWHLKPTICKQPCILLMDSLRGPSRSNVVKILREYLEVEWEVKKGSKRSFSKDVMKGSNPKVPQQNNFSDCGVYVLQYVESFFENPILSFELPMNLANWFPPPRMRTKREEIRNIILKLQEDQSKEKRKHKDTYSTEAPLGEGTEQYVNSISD

[2] = target: T2, Replicative DNA helicase DnaB (Mycobacterium tuberculosis, UniProt P9WMR3); experiment: DnaB intein splicing inhibitors, dose response, biochemical, cell-free fluorescence (AID 449749); type: functional
T2 sequence (P9WMR3 whole entry): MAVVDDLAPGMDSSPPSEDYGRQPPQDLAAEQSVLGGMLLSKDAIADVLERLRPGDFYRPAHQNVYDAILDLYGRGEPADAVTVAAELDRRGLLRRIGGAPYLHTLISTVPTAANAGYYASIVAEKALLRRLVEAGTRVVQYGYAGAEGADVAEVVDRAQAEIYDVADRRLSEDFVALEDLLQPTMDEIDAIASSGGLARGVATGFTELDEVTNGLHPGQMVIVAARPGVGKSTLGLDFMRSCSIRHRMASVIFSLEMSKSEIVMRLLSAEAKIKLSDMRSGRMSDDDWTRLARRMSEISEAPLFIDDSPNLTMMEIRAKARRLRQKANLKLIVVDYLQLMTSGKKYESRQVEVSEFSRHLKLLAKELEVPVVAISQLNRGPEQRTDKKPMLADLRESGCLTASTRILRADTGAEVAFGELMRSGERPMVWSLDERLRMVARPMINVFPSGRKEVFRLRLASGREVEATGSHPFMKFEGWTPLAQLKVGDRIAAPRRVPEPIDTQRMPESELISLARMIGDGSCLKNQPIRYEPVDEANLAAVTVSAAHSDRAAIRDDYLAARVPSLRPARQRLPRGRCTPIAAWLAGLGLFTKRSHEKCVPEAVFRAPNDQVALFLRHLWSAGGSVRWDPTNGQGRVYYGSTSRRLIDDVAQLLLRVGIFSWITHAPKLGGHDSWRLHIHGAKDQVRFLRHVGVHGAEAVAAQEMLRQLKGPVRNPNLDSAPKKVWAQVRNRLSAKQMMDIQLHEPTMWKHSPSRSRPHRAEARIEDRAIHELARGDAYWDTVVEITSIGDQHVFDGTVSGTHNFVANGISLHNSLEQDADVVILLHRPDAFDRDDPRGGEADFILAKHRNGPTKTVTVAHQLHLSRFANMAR

Cc1ccc(C(=O)NNc2cc(N3CCCC3)nc(N3CCCC3)n2)cc1
IC50 [1]: 838 nM (active)

Cc1cc(/C=C2\SC(=S)N(C)C2=O)c(C)n1-c1ccc(O)cc1
IC50 [1]: 4660 nM (active)

COC(=O)c1cccc(-c2ccc(C(c3c(C)n[nH]c3O)c3c(C)n[nH]c3O)o2)c1
AC50 [2]: 398 nM (active)

O=C1/C(=N\c2cccc(O)c2)C(N2CCCCC2)=C(O)c2ccccc21
AC50 [2]: 5580 nM (active)
